From US10925874B2, “Substituted pyrazolopyrimidines as glucocerebrosidase activators” (The United States of America, as Represented by the …, priority 2010, dated 2021)

These molecules were tested against T1, N370S glucocerebrosidase from human spleen homogenate (Homo sapiens, UniProt P04062, N409S) (assay: qHTS fluorogenic enzyme assay for activators of N370S glucocerebrosidase (4-methylumbelliferyl-beta-D-glucopyranoside substrate)). Details: pH 5.0, 37° C. 40 min.
T1 construct: N370S glucocerebrosidase from human spleen homogenate as the enzyme preparation; from tissue; host or cells: human spleen homogenate
T1 sequence (P04062 40-536 N409S): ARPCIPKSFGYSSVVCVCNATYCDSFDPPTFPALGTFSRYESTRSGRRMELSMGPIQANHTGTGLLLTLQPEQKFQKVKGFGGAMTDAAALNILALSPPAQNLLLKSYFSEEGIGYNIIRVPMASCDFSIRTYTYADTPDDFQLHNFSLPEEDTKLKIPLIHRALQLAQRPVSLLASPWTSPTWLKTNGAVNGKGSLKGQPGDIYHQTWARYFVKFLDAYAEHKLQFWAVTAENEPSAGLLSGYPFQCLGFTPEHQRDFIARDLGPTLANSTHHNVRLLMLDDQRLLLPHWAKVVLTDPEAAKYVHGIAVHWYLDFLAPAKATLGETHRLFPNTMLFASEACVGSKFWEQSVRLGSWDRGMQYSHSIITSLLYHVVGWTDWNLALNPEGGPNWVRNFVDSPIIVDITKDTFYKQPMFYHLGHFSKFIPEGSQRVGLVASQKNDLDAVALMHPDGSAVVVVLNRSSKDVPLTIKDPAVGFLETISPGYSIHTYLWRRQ
Format: biochemical
Text: qHTS Assay for Inhibitors and Activators of N370S glucocerebrosidase as a Potential Chaperone Treatment of Gaucher Disease: Primary Screen Confirmation
This is a fluorogenic enzyme assay with 4-methylumbelliferyl-beta-D-glucopyranoside as the substrate and N370S glucocerebrosidase from human spleen homogenate as the enzyme preparation. Upon the hydrolysis of this fluorogenic substrate, the resulting product, […] which can be detected by a standard fluorescence plate reader. Data were normalized to the controls for basal activity (without enzyme) and 100% activity (with enzyme). The AC50 values were determined from concentration-response data modeled with the standard Hill equation.
Human spleen homogenate is prepared as follows by homogenizing spleen with assay buffer containing 50 mM citric acid (titrated with potassium phosphate to pH 5.0), 100 mM potassium chloride, 10 mM sodium chloride, 1 mM magnesium chloride, 0.01% Tween-20. The protein concentration of the human spleen homogenate is approximated 1.35 ug/ul.
The assay is performed in 1536 well plates according to the following protocol. (1) 2 ul spleen homogenate ([…] final) is added to each well. (2) 23 nL test compound in DMSO solution is added to each well. The final concentration of compound in the test well is 0.5 nM to 58 uM. (3) 2 ul of substrate (1 mM final) are added to each well. (4) Incubate assay plates at 37° C. for 40 min. (5) Add 2 ul stop solution (1M NaOH and 1M Glycine mixture, pH 10) to each well. (6) Detect the assay plate in a ViewLux plate reader (PerkinElmer) using 365 nm excitation with emission at 440 nm.

SMILES	AC50
O=C(Nc1cnn(Cc2ccc(F)cc2)c1)c1cnn2c(C(F)F)cc(-c3ccccc3)nc12 [MLS000662187-01, 7-(difluoromethyl)-N-(1-(4-fluorobenzyl)-1H-pyrazol-4-yl)-5-phenylpyrazolo[1,5-a]pyrimidine-3-carboxamide]	3.26 µM
CCC(C)c1ccc(NC(=O)c2cnn3c(C(F)F)cc(C)nc23)cc1 (stereo not drawn) [MLS000662237-01, N-(4-sec-butylphenyl)-7-(difluoromethyl)-5-methylpyrazolo[1,5-a]pyrimidine-3-carboxamide]	5.01 µM
CCc1ccc(NC(=O)c2cnn3c(C(F)F)cc(C)nc23)cc1 [MLS000708974-01, 7-(difluoromethyl)-N-(4-ethylphenyl)-5-methylpyrazolo[1,5-a]pyrimidine-3-carboxamide]	2.24 µM
Cc1cc(C)n2ncc(C(=O)Nc3ccc(Cl)c(Cl)c3)c2n1 [MLS000765493-01, N-(3,4-dichlorophenyl)-5,7-dimethylpyrazolo[1,5-a]pyrimidine-3-carboxamide]	7.08 µM
Cc1cc(C)n2ncc(C(=O)Nc3ccc4c(c3)OCO4)c2n1 [NCGC00054856-02, N-(benzo[d][1,3]dioxol-5-yl)-5,7-dimethylpyrazolo[1,5-a]pyrimidine-3-carboxamide]	6.51 µM
COC(=O)c1ccccc1NC(=O)c1cnn2c1NC(=C1CC1)C=C2C(F)F [NCGC00182132-01, methyl 2-(5-cyclopropylidene-7-(difluoromethyl)-4,5-dihydropyrazolo[1,5-a]pyrimidine-3-carboxamido)benzoate]	15.8 µM
Cc1ccc(NC(=O)c2cnn3c2NC(=C2CC2)C=C3C(F)F)cc1C [NCGC00182133-01, 5-cyclopropylidene-7-(difluoromethyl)-N-(3,4-dimethylphenyl)-4,5-dihydropyrazolo[1,5-a]pyrimidine-3-carboxamide]	3.16 µM

More lines, now with the values ahead:

AC50	SMILES
12.6 µM	Cc1cccc(NC(=O)c2cnn3c2NC(=C2CC2)C=C3C(F)F)n1 [NCGC00182139-01, 5-cyclopropylidene-7-(difluoromethyl)-N-(6-methylpyridin-2-yl)-4,5-dihydropyrazolo[1,5-a]pyrimidine-3-carboxamide]
2.51 µM	C=C1C=C(C(F)F)n2ncc(C(=O)Nc3ccc(C(C)CC)cc3)c2N1 (stereo not drawn) [NCGC00182141-01, N-(4-sec-butylphenyl)-7-(difluoromethyl)-5-methylene-4,5-dihydropyrazolo[1,5-a]pyrimidine-3-carboxamide]
10 µM	C=C1C=C(C(F)F)n2ncc(C(=O)Nc3cccc(CC)c3)c2N1 [NCGC00182142-01, 7-(difluoromethyl)-N-(3-ethylphenyl)-5-methylene-4,5-dihydropyrazolo[1,5-a]pyrimidine-3-carboxamide]
35.5 µM	C=C1C=C(C(F)F)n2ncc(C(=O)N3CCN(c4ccccn4)CC3)c2N1 [NCGC00182144-01, (7-(difluoromethyl)-5-methylene-4,5-dihydropyrazolo[1,5-a]pyrimidin-3-yl)(4-(pyridin-2-yl)piperazin-1-yl)methanone]
31.6 µM	C=C1C=C(C(F)F)n2ncc(C(=O)NC(C)CC)c2N1 (stereo not drawn) [NCGC00182145-01, N-sec-butyl-7-(difluoromethyl)-5-methylene-4,5-dihydropyrazolo[1,5-a]pyrimidine-3-carboxamide]
10 µM	C=C1C=C(C(F)F)n2ncc(C(=O)NCc3ccc(Cl)cc3Cl)c2N1 [NCGC00182146-01, N-(2,4-dichlorobenzyl)-7-(difluoromethyl)-5-methylene-4,5-dihydropyrazolo[1,5-a]pyrimidine-3-carboxamide]
25.1 µM	C=C1C=C(C(F)F)n2ncc(C(=O)NCCc3ccccc3OC)c2N1 [NCGC00182147-01, 7-(difluoromethyl)-N-(2-methoxyphenethyl)-5-methylene-4,5-dihydropyrazolo[1,5-a]pyrimidine-3-carboxamide]
14.1 µM	C=C1C=C(C(F)F)n2ncc(C(=O)NCc3ccccc3Cl)c2N1 [NCGC00182148-01, N-(2-chlorobenzyl)-7-(difluoromethyl)-5-methylene-4,5-dihydropyrazolo[1,5-a]pyrimidine-3-carboxamide]
